Data reported in patent publication US8076352B2, “Administration of carboline derivatives useful in the treatment of cancer and other diseases” (PTC Therapeutics, Inc., priority 2004, dated 2011).

test system: hypoxia-inducible endogenous VEGF expression in HeLa cells; experiment: Hypoxia-inducible endogenous VEGF expression, VEGF ELISA of conditioned media (dose-response EC50); format: cell-based; conditions: Homo sapiens, HeLa cells under hypoxic conditions
Protocol: The ability of the compounds of the invention to modulate hypoxia-inducible endogenous VEGF expression may be analyzed as follows. VEGF protein levels may be monitored by an ELISA assay (R&D Systems). Briefly, HeLa cells may be cultured for 24-48 hours under hypoxic conditions (1% O2, 5% CO2, balanced with nitrogen) in the presence or absence of a compound of the invention. The conditioned media may then be assayed by ELISA, and the concentration of VEGF calculated from the standard ELISA curve of each assay.
A dose-response analysis may be performed using the ELISA assay and conditions described above. The conditions for the dose-response ELISA are analogous to those described above. A series of, e.g., seven different concentrations may be analyzed. […] Dose-response curves may be plotted using percentage inhibition versus concentration of the compound, and EC50 and CC50 values may be generated for each compound with the maximal inhibition set as 100% and the minimal inhibition as 0%.

Structure (SMILES) | EC50 [µM]
CCCOC(=O)N1CCc2c([nH]c3ccc(Cl)cc23)C1c1cccc(C(F)(F)F)c1 (centres unmarked) [Compound 79] | 0.008 to 0.04
CC(=O)N1CCc2c([nH]c3ccc(Br)cc23)C1c1cccc(C(F)(F)F)c1 (centres unmarked) [Compound 80] | 0.008 to 0.04
ON1CCc2c([nH]c3ccc(Br)cc23)C1c1ccc(Cl)cc1 (centres unmarked) [Compound 81] | 0.008 to 0.04
CCOC(=O)N1CCc2c([nH]c3ccc(Cl)cc23)C1c1cc(F)ccc1F (centres unmarked) [Compound 82] | 0.008 to 0.04
O=C(OCCCl)N1CCc2c([nH]c3ccc(Cl)cc23)C1c1cc(F)cc(F)c1 (centres unmarked) [Compound 83] | 0.008 to 0.04
COC(=O)N1CCc2c([nH]c3ccc(Cl)cc23)C1c1cccc(F)c1 (centres unmarked) [Compound 84] | 0.008 to 0.04
CC(C)OC(=O)N1CCc2c([nH]c3ccc(Cl)cc23)C1c1cccc(C(F)(F)F)c1 (centres unmarked) [Compound 85] | 0.008 to 0.04
CCCOC(=O)N1CCc2c([nH]c3ccc(Cl)cc23)C1c1cccc(OC)c1 (centres unmarked) [Compound 86] | 0.008 to 0.04
CC(C)OC(=O)N1CCc2c([nH]c3ccc(Cl)cc23)C1c1cccc(Cl)c1 (centres unmarked) [Compound 87] | 0.008 to 0.04
COc1cccc(C2c3[nH]c4ccc(Cl)cc4c3CCN2C(=O)OC(C)C)c1 (centres unmarked) [Compound 88] | 0.008 to 0.04
O=C(OCCCl)N1CCc2c([nH]c3ccc(Cl)cc23)C1c1ccc([N+](=O)[O-])cc1 (centres unmarked) [Compound 89] | 0.008 to 0.04
CC(C)OC(=O)N1CCc2c([nH]c3ccc(Cl)cc23)C1c1cccc(F)c1 (centres unmarked) [Compound 90] | 0.008 to 0.04
CCOC(=O)N1CCc2c([nH]c3ccc(Cl)cc23)C1c1ccc(C)cc1 (centres unmarked) [Compound 91] | 0.008 to 0.04
COC(=O)N1CCc2c([nH]c3ccc(Cl)cc23)C1c1cc(F)cc(F)c1 (centres unmarked) [Compound 92] | 0.008 to 0.04
CCOC(=O)N1CCc2c([nH]c3ccc(Cl)cc23)C1c1cccc(Br)c1 (centres unmarked) [Compound 93] | 0.008 to 0.04
CCCOC(=O)N1CCc2c([nH]c3ccc(Cl)cc23)C1c1ccccc1 (centres unmarked) [Compound 94] | 0.008 to 0.04
CC(C)OC(=O)N1CCc2c([nH]c3ccc(Cl)cc23)C1c1cccc(Br)c1 (centres unmarked) [Compound 95] | 0.008 to 0.04
COC(=O)N1CCc2c([nH]c3ccc(Cl)cc23)C1c1ccccc1 (centres unmarked) [Compound 96] | 0.008 to 0.04
CCCOC(=O)N1CCc2c([nH]c3ccc(Cl)cc23)C1c1ccccc1F (centres unmarked) [Compound 97] | 0.008 to 0.04
CC(=O)N1CCc2c([nH]c3ccc(Br)cc23)C1c1cccc(Cl)c1 (centres unmarked) [Compound 98] | 0.008 to 0.04
O=C(OCCCl)N1CCc2c([nH]c3ccc(Cl)cc23)C1c1cccc(Br)c1 (centres unmarked) [Compound 99] | 0.008 to 0.04
CCOC(=O)N1CCc2c([nH]c3ccc(Cl)cc23)C1c1ccc(OCc2ccccc2)cc1 (centres unmarked) [Compound 100] | 0.008 to 0.04

Structure (SMILES) | EC50 [µM]
CC(C)OC(=O)N1CCc2c([nH]c3ccc(Cl)cc23)C1c1ccccc1 (centres unmarked) [Compound 101] | 0.008 to 0.04
CC(=O)N1CCc2c([nH]c3ccc(Br)cc23)C1c1ccc(C(C)C)cc1 (centres unmarked) [Compound 102] | 0.008 to 0.04
O=C(OCCCl)N1CCc2c([nH]c3ccc(Cl)cc23)C1c1ccccc1F (centres unmarked) [Compound 103] | 0.008 to 0.04
COC(=O)N1CCc2c([nH]c3ccc(Cl)cc23)C1c1cccc(Cl)c1 (centres unmarked) [Compound 104] | 0.008 to 0.04
CC(C)OC(=O)N1CCc2c([nH]c3ccc(Cl)cc23)C1c1ccccc1F (centres unmarked) [Compound 105] | 0.008 to 0.04
CCOC(=O)N1CCc2c([nH]c3ccc(Cl)cc23)C1c1ccccc1F (centres unmarked) [Compound 106] | 0.008 to 0.04
CCOC(=O)N1CCc2c([nH]c3ccc(Cl)cc23)C1c1cccc(OC)c1 (centres unmarked) [Compound 107] | 0.008 to 0.04
COC(=O)N1CCc2c([nH]c3ccc(Cl)cc23)C1c1ccccc1F (centres unmarked) [Compound 108] | 0.008 to 0.04
CCOC(=O)N1CCc2c([nH]c3ccc(Cl)cc23)C1c1cccc(C)c1 (centres unmarked) [Compound 109] | 0.008 to 0.04
COc1ccc(C2c3[nH]c4ccc(Br)cc4c3CCN2O)cc1 (centres unmarked) [Compound 110] | 0.008 to 0.04
COC(=O)N1CCc2c([nH]c3ccc(Cl)cc23)C1c1ccc([N+](=O)[O-])cc1 (centres unmarked) [Compound 111] | 0.008 to 0.04
CC(C)c1ccc(C2NCCc3c2[nH]c2ccc(Br)cc32)cc1 (centres unmarked) [Compound 112] | 0.008 to 0.04
CCOC(=O)N1CCc2c([nH]c3ccc(Br)cc23)C1c1ccc(OC)cc1 (centres unmarked) [Compound 112] | < 0.008
CCOC(=O)N1CCc2c([nH]c3ccc(Cl)cc23)C1c1ccc2c(c1)OCO2 (centres unmarked) [Compound 113] | 0.008 to 0.04
O=C(OCCCl)N1CCc2c([nH]c3ccc(Cl)cc23)C1c1ccccc1 (centres unmarked) [Compound 114] | 0.008 to 0.04
CCOC(=O)N1CCc2c([nH]c3ccc(Br)cc23)C1c1cc(F)ccc1F (centres unmarked) [Compound 115] | 0.008 to 0.04
O=C(OCCCl)N1CCc2c([nH]c3ccc(Cl)cc23)C1c1cccc(F)c1 (centres unmarked) [Compound 116] | 0.008 to 0.04
COc1cccc(C2c3[nH]c4ccc(Cl)cc4c3CCN2C(=O)OCCCl)c1 (centres unmarked) [Compound 117] | 0.008 to 0.04
COC(=O)N1CCc2c([nH]c3ccc(Cl)cc23)C1c1ccc(C#N)cc1 (centres unmarked) [Compound 118] | 0.008 to 0.04
CCOC(=O)N1CCc2c([nH]c3ccc(Cl)cc23)C1c1ccc(C#N)cc1 (centres unmarked) [Compound 120] | 0.008 to 0.04
O=C(Oc1ccccc1)N1CCc2c([nH]c3ccc(Cl)cc23)C1c1ccccc1 (centres unmarked) [Compound 121] | 0.008 to 0.04

Results, then the compound that gave them:

EC50 [µM] | Structure (SMILES)
0.008 to 0.04 | CC(C)COC(=O)N1CCc2c([nH]c3ccc(Cl)cc23)C1c1ccccc1 (centres unmarked) [Compound 122]
0.008 to 0.04 | Fc1cccc(C2NCCc3c2[nH]c2ccc(Cl)cc32)c1F (centres unmarked) [Compound 123]
0.04 to 0.2 | Clc1ccc(C2NCCc3c2[nH]c2ccc(Cl)cc32)c(Cl)c1 (centres unmarked) [Compound 124]
0.04 to 0.2 | COC(=O)N1CCc2c([nH]c3ccc(Cl)cc23)C1c1cccc(C(F)(F)F)c1 (centres unmarked) [Compound 125]
0.04 to 0.2 | CCOC(=O)N1CCc2c([nH]c3ccc(Cl)cc23)C1c1cc(=O)c2ccccc2o1 (centres unmarked) [Compound 126]
0.04 to 0.2 | COC(=O)N1CCc2c([nH]c3ccc(Cl)cc23)C1c1cccc(OC)c1 (centres unmarked) [Compound 127]
0.04 to 0.2 | CCOC(=O)N1CCc2c([nH]c3ccc(Cl)cc23)C1c1ccc(O)cc1 (centres unmarked) [Compound 128]
0.04 to 0.2 | CC(=O)N1CCc2c([nH]c3ccc(Br)cc23)C1c1ccc(Br)cc1 (centres unmarked) [Compound 129]
0.04 to 0.2 | COc1ccc(C2c3[nH]c4ccc(Br)cc4c3CCN2C(C)=O)cc1 (centres unmarked) [Compound 130]
0.04 to 0.2 | CC(=O)N1CCc2c([nH]c3ccc(Br)cc23)C1c1ccc(C)cc1 (centres unmarked) [Compound 131]
0.04 to 0.2 | Fc1cccc(C2NCCc3c2[nH]c2ccc(Br)cc32)c1F (centres unmarked) [Compound 132]
0.04 to 0.2 | COC(=O)N1CCc2c([nH]c3ccc(Cl)cc23)C1c1ccc2c(c1)OCO2 (centres unmarked) [Compound 133]
0.04 to 0.2 | COC(=O)N1CCc2c([nH]c3ccc(Cl)cc23)C1c1ccc(F)c(F)c1 (centres unmarked) [Compound 134]
0.04 to 0.2 | Clc1ccc(C2NCCc3c2[nH]c2ccc(Br)cc32)c(Cl)c1 (centres unmarked) [Compound 135]
0.04 to 0.2 | CCOC(=O)Oc1ccc(C2c3[nH]c4ccc(Cl)cc4c3CCN2C(=O)OCC)cc1 (centres unmarked) [Compound 136]
0.04 to 0.2 | Clc1cccc(C2NCCc3c2[nH]c2ccc(Br)cc32)c1 (centres unmarked) [Compound 137]
0.04 to 0.2 | ON1CCc2c([nH]c3ccc(Br)cc23)C1c1ccccc1 (centres unmarked) [Compound 138]
0.04 to 0.2 | CCOC(=O)N1CCc2c([nH]c3ccc(Cl)cc23)C1c1cccc([N+](=O)[O-])c1 (centres unmarked) [Compound 139]
0.04 to 0.2 | O=C(NC1CCCCC1)N1CCc2c([nH]c3ccc(Br)cc23)C1c1cccc(Cl)c1 (centres unmarked) [Compound 140]
